Source: patent US11364277B2, “Treatment of ascites” (BioVie Inc., priority 2015, dated 2022)
Where “and” joins values, the source holds several entries; their conditions need not be identical. Identical values can stand only once. Where a SMILES comes first, the peptide text is derived from it. Bridges are numbered along the chain shown (N, C = ends).

Assays:
[1] = human, in vivo, cited from earlier work
[2] = human, in vivo; cited from earlier work
[3] = system: subjects with ascites due to liver cirrhosis, not type 1 or type 2 HRS; assay type: in vivo, human
Experimental: 15 subjects that are to be confirmed to have ascites, but not type 1 or type 2 HRS, due to liver cirrhosis will be administered continuous low dose (escalating from 2.0 to 3.0 mg per 24 hours) terlipressin via ambulatory infusion pump. […] Accordingly, continuous infusion pump (CIP) terlipressin represents a potentially life-saving solution for these seriously ill patients who are still ambulatory (have not yet been administered to the hospital for treatment) and have not developed type 1 or type 2 HRS.

[4] = system: HRS patients with diuretic intractable or refractory ascites; assay: Example 2: six HRS patients with ascites treated with continuous infusion terlipressin, evaluated before, during and after treatment; assay type: in vivo, human; details: for Body Weight After / Plasma Sodium After / Serum Creatinine After / Serum Urea After: after treatment;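 as to Serum Urea After: serum urea in mmol/L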;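 as to Serum Urea During: serum urea in mmol/L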
Experimental: Six FIRS patients treated with continuous infusion terlipressin were evaluated for improvement in […]. All six patients had diuretic intractable or refractory ascites (5 of 6 with hyponatremia). The patients were evaluated for the following parameters before, during and after treatment: number of paracentesis procedures per month, volume of ascites removed, weight, serum sodium, urinary sodium excretion, serum creatinine, serum urea, and whether diuretics were included in the treatment regimen.

[5] = Average (excludes patients #2, #3, #5)
[6] = Patient 1, max. dose 12 mg/day, 63 days
[7] = Patient 1, max. dose 12 mg/day, 63 days, diuretics during: A
[8] = Patient 2, max. dose 12 mg/day, 195 days
[9] = Patient 2, max. dose 12 mg/day, 195 days, diuretics during: None
[10] = Patient 3, max. dose 3 mg/day, 10 days
[11] = Patient 3, max. dose 3 mg/day, 10 days, diuretics during: None
[12] = Patient 4, max. dose 10 mg/day, 11 days
[13] = Patient 4, max. dose 10 mg/day, 11 days, diuretics during: None
[14] = Patient 5, max. dose 3 mg/day, 22 days
[15] = Patient 5, max. dose 3 mg/day, 22 days, diuretics during: None
[16] = Patient 6, max. dose 2 mg/day, 12 days
[17] = Patient 6, max. dose 2 mg/day, 12 days, diuretics during: F + A

NCCCC[C@H](NC(=O)[C@@H]1CCCN1C(=O)[C@@H]1CSSC[C@H](NC(=O)CNC(=O)CNC(=O)CN)C(=O)N[C@@H](Cc2ccc(O)cc2)C(=O)N[C@@H](Cc2ccccc2)C(=O)N[C@@H](CCC(N)=O)C(=O)N[C@@H](CC(N)=O)C(=O)N1)C(=O)NCC(N)=O [terlipressin] (H-GGGCYFQNCPKG-NH2; disulfide 4-9)
patients with side effects ([1]; iv): up to 40% | patients with severe side effects requiring discontinuation of treatment [1]: up to 10% | half-life [2]: 26 min | severity of ascites and accumulation of ascites fluid ([3]; 2.0 to 3.0 mg per 24 hours escalating, 1 day to 28 days, expected): decrease the severity of ascites and the accumulation of ascites fluid | average amount of fluid withdrawn after beginning therapy ([3]; compared to prior to the start of treatment, expected): significantly less than prior to the start of treatment | number of paracentesis procedures required over a 28-day period ([3]; compared to the 28-day period prior to treatment inception, expected): reduce the number of paracentesis procedures | safety of continuous infusion pump terlipressin ([3]; human, in vivo): no serious side effects | Plasma Sodium % Change ([4]; Average): 5% | Plasma Sodium During ([4]; Average): 135 mEq/L | Serum Creatinine % Change ([4]; Average): −47% | Serum Creatinine During ([4]; Average): 127 µM | Serum Urea % Change ([4]; Average): −45% | Serum Urea During ([4]; Average): 15.1 mmol/L | Body Weight % Change ([4]; Average (excludes Patient #4)): −11% | Body Weight During ([4]; Average (excludes Patient #4)): 73 kg | Body Weight After ([4]; Average (excludes Patient #4)): 87 kg | Paracenteses/Month % Change ([4]; Average (excludes patient #1)): −32% | Volume Fluid Removed/Month % Change ([4]; Average (excludes patient #1)): −55% | Volume Fluid Removed/Month During ([4]; Average (excludes patient #1)): 14 L | Urinary Na over 24 hours % Change [4, 5]: 1632% | Urinary Na over 24 hours During [4, 5]: 127 mEq/24 hr | Plasma Sodium After ([4]; Average): 136 mEq/L | Serum Creatinine After ([4]; Average): 105 µM | Serum Urea After ([4]; Average): 10.4 mmol/L | Plasma Sodium % Change [4, 6]: −2% | Plasma Sodium During [4, 6]: 137 mEq/L | Serum Creatinine % Change [4, 6]: −24% | Serum Creatinine During [4, 6]: 189 µM | Serum Urea % Change [4, 6]: −72% | Serum Urea During [4, 6]: 8.8 mmol/L | Urinary Na over 24 hours % Change [4, 6]: 820% | Urinary Na over 24 hours During [4, 6]: 46 mEq/24 hr | Body Weight After [4, 6]: 74 kg | Body Weight % Change [4, 7]: −11% | Body Weight During [4, 7]: 74 kg | Paracenteses/Month % Change [4, 7]: −100% | Paracenteses/Month During [4, 7]: 0 /Month | Plasma Sodium % Change [4, 8]: 2% | Plasma Sodium During [4, 8]: 128 mEq/L | Serum Creatinine % Change [4, 8]: −46% | Serum Creatinine During [4, 8]: 208 µM | Serum Urea % Change [4, 8]: −37% | Serum Urea During [4, 8]: 23.2 mmol/L | Urinary Na over 24 hours During [4, 8]: 301 mEq/24 hr | Body Weight % Change [4, 9]: 11% | Body Weight During [4, 9]: 71 kg | Paracenteses/Month % Change [4, 9]: −25% | Paracenteses/Month During [4, 9]: 6 /Month | Volume Fluid Removed/Month % Change [4, 9]: −48% | Volume Fluid Removed/Month During [4, 9]: 42 L | Plasma Sodium % Change [4, 10]: 2% | Plasma Sodium During [4, 10]: 136 mEq/L | Serum Creatinine % Change [4, 10]: −50% | Serum Creatinine During [4, 10]: 116 µM | Serum Urea % Change [4, 10]: −46% | Serum Urea During [4, 10]: 9.1 mmol/L | Body Weight After [4, 10]: 128 kg | Plasma Sodium After [4, 10]: 140 mEq/L | Serum Creatinine After [4, 10]: 122 µM | Serum Urea After [4, 10]: 10.8 mmol/L | Body Weight % Change [4, 11]: −23% | Body Weight During [4, 11]: 99 kg | Paracenteses/Month % Change [4, 11]: −50% | Paracenteses/Month During [4, 11]: 2 /Month | Volume Fluid Removed/Month % Change [4, 11]: −65% | Volume Fluid Removed/Month During [4, 11]: 14 L | Plasma Sodium % Change [4, 12]: 15% | Plasma Sodium During [4, 12]: 141 mEq/L | Serum Creatinine % Change [4, 12]: −67% | Serum Creatinine During [4, 12]: 104 µM | Serum Urea % Change [4, 12]: −28% | Serum Urea During [4, 12]: 37.3 mmol/L | Urinary Na over 24 hours % Change [4, 12]: 1900% | Urinary Na over 24 hours During [4, 12]: 20 mEq/24 hr | Paracenteses/Month % Change [4, 13]: 50% | Paracenteses/Month During [4, 13]: 3 /Month | Volume Fluid Removed/Month % Change [4, 13]: −36% | Volume Fluid Removed/Month During [4, 13]: 9 L | Plasma Sodium % Change [4, 14]: −2% | Plasma Sodium During [4, 14]: 128 mEq/L | Serum Creatinine % Change [4, 14]: −19% | Serum Creatinine During [4, 14]: 55 µM | Serum Urea % Change [4, 14]: −17% | Serum Urea During [4, 14]: 5.3 mmol/L | Body Weight After [4, 14]: 77 kg | Serum Creatinine After [4, 14]: 55 µM | Serum Urea After [4, 14]: 10.5 mmol/L | Body Weight % Change [4, 15]: −10% | Body Weight During [4, 15]: 64 kg | Paracenteses/Month % Change [4, 15]: −33% | Paracenteses/Month During [4, 15]: 2 /Month | Volume Fluid Removed/Month % Change [4, 15]: −71% | Volume Fluid Removed/Month During [4, 15]: 6 L | Plasma Sodium % Change [4, 16]: 19% | Plasma Sodium During [4, 16]: 140 mEq/L | Serum Creatinine % Change [4, 16]: −54% | Serum Creatinine During [4, 16]: 90 µM | Serum Urea % Change [4, 16]: −68% | Serum Urea During [4, 16]: 6.6 mmol/L | Urinary Na over 24 hours % Change [4, 16]: 1869% | Urinary Na over 24 hours During [4, 16]: 315 mEq/24 hr | Body Weight After [4, 16]: 68 kg | Plasma Sodium After [4, 16]: 131 mEq/L | Serum Creatinine After [4, 16]: 137 µM | Serum Urea After [4, 16]: 10.0 mmol/L | Body Weight % Change [4, 17]: −14% | Body Weight During [4, 17]: 55 kg | Paracenteses/Month % Change [4, 17]: −100% | Paracenteses/Month During [4, 17]: 0 /Month | Volume Fluid Removed/Month % Change [4, 17]: −100% | Volume Fluid Removed/Month During [4, 17]: 0 L | overall average decrease of urea concentration in blood serum ([4]; all patients, during treatment): 45% | reduction of average monthly ascites fluid volume removed ([4]; during continuous infusion therapy vs prior to initiation): 55% | decrease of average body weight per patient ([4]; during therapy, proxy for ascitic fluid accumulation): 11% and 9 kg and ~19.8 lbs | improvement of ascites seen without diuretics ([4]; during treatment, number of patients): four of six patients | plasma sodium after the cessation of therapy ([4]; patient #6): remained normal | correction of severe hyponatremia ([4]; patients #4 and #6): corrected severe hyponatremia in two patients | average urinary sodium after starting therapy ([4]; three of six patients with data before and after starting continuous infusion, increased from 7): 127 mEq/24 h | average decrease in serum creatinine levels ([4]; treated group of patients): 47%
